Experimental data: US11345712B2, “Protein-targeting compounds and pharmaceutical compositions thereof, and their therapeutic applications” (BioTheryX, Inc., priority 2019, dated 2022)

Tests used:
IKAROS = biological target: T1, IKAROS (Homo sapiens, UniProt Q13422+Q96SW2); assay: Protein degradation assay (Western blot) in MV-4-11 cells: IKAROS; assay type: cell-based; settings: 6-8 h, compound concentration 0.1 μM
T1 construct: Whole cell extracts were prepared using a radioimmunoprecipitation assay (RIPA) buffer; endogenous in cells; host or cells: MV-4-11
Protocol: (§1) MV-4-11 cells were grown in RPMI 1640 media supplemented with 10% fetal bovine serum, streptomycin, and penicillin. The cells were cultured at approximately 10^6 cells per mL and incubated in DMSO or a compound for 6-8 h. Whole cell extracts were prepared using a radioimmunoprecipitation assay (RIPA) buffer. Briefly, 3×10^6 cells were washed once in PBS, and the cell pellets were resuspended in the RIPA buffer and incubated for 15 min on ice. Cells debris was removed by centrifugation and the cleared whole cell lysates were transferred to new tubes for further analysis.
(§2) For Western blot analysis, whole cell protein extracts were separated on 4-12% SDS-polyacrylamide gels, transferred to nitrocellulose, and probed with primary antibodies. Membranes were subsequently washed and probed with IRDYE® secondary antibodies. The signal was detected using an ODYSSEY® Imaging System.
(§3) The following antibodies were used in the assays described herein: anti-eRF3/GSPT1: Abcam, ab126090 (Cambridge, Mass.); anti-Ikaros: Abcam, ab191394 (Cambridge, Mass.); anti-CK1α: Abcam, ab108296 (Cambridge, Mass.); β-actin (8H10D10) mouse monoclonal antibody: Cell Signaling Technology, #3700 (Danvers, Mass.); IRDYE® 680RD goat anti-rabbit antibody: LI-COR, 926-68071 (Lincoln, Nebr.); and IRDYE® 800CW goat anti-mouse antibody: LI-COR, 926-32210 (Lincoln, Nebr.).
(§4) The protein degradation results are summarized in Table 1, wherein A represents a value no less than 80%, B represents a value less than 80% but no less than 50%, C represents a value less than 50% but no less than 25%, and D represents a value less than 25% protein degradation at a compound concentration of 0.1 μM.

CK1α = biological target: T2, CK1α (Homo sapiens, UniProt P48729+Q96SW2); assay: Protein degradation assay (Western blot) in MV-4-11 cells: CK1α; assay type: cell-based; settings: 6-8 h, compound concentration 0.1 μM
T2 construct: Whole cell extracts were prepared using a radioimmunoprecipitation assay (RIPA) buffer; endogenous in cells; host or cells: MV-4-11
Protocol: as §1, §2, §3, §4

GSPT1 = biological target: T3, GSPT1 (Homo sapiens, UniProt P15170+Q96SW2); assay: Protein degradation assay (Western blot) in MV-4-11 cells: GSPT1; assay type: cell-based; settings: 6-8 h, compound concentration 0.1 μM
T3 construct: Whole cell extracts were prepared using a radioimmunoprecipitation assay (RIPA) buffer; endogenous in cells; host or cells: MV-4-11
Protocol: as §1, §2, §3, §4

IL-1β = assay: Cytokine modulation assay, LPS-induced PBMCs or CD14+ monocytes: IL-1β; assay type: cell-based; settings: 0.1 μM compound, 100 ng/mL LPS 18-24 h
Protocol: (§5) Frozen primary blood mononuclear cells (PBMCs) or frozen CD14+ mobilized peripheral blood monocytes were quick thawed, washed once with RPMI-1640 (10% FBS/1% Pen-Strep), and plated in 96 well plates at 200,000 cells per well. The cells were pretreated with DMSO only or with a compound for 1 h and then induced with 100 ng/mL lipopolysaccharide (LPS) for 18-24 h. The supernatant was analyzed for IL-1β, IL-6, and TNFα using Meso Scale assays. The negative control wells were treated with DMSO.

IL-6 = assay: Cytokine modulation assay, LPS-induced PBMCs or CD14+ monocytes: IL-6; assay type: cell-based; settings: 0.1 μM compound, 100 ng/mL LPS 18-24 h
Protocol: as §5

TNF-α = assay: Cytokine modulation assay, LPS-induced PBMCs or CD14+ monocytes: TNFα; assay type: cell-based; settings: 0.1 μM compound, 100 ng/mL LPS 18-24 h
Protocol: as §5

IL-2 = IL-2 analysis in anti-CD3 stimulated PBMCs; assay type: cell-based, human; settings: 0.01 μM compound, PBMCs on anti-CD3 coated plates, 24 h
Protocol: For the IL-2 analysis, 96 well plates were precoated with 1 μg/mL anti-human CD3 antibody (OKT3, eBioscience Inc., San Diego, Calif.). After washed with PBS, the compound was added (50 μL/well), followed by addition of PBMCs diluted at 3-4 million cells/mL (150 μL/well). The plates were incubated for 24 h and the supernatants were collected for IL-2 analysis. IL-2 activity was measured as fold difference from the DMSO control. At a concentration of 0.01 μM, compounds I-1 and I-3 stimulated IL-2 production with 3.7 and 3.9 fold change, respectively, over the DMSO control.

MOLM-13 cells = assay: MOLM-13 cell viability assay (CellTiter-Glo); assay type: cell-based; settings: 3 days, concentration of 1 μM
Summary of the method: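 Luminescent ATP read-out (CellTiter-Glo, 10 min with shaking) after 3-day compound or DMSO exposure at 37° C, 5% CO2. Cells plated at 2,500/well in RPMI 1640 plus 10% FBS.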

T1 sequence (Q13422 whole entry): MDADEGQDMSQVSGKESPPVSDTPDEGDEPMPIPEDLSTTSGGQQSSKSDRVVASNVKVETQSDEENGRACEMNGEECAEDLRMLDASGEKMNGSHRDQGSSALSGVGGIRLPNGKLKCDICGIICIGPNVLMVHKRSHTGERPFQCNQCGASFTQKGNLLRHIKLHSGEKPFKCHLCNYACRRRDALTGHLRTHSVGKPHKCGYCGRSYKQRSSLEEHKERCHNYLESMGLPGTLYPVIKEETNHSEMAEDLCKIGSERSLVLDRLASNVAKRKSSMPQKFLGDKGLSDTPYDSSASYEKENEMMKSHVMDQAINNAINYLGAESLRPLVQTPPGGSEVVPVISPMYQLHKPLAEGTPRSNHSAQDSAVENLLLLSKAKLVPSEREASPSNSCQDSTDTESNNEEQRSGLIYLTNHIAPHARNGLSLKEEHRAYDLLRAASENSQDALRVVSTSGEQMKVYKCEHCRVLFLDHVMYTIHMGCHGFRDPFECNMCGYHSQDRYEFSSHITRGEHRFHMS
T1 sequence (Q96SW2 whole entry): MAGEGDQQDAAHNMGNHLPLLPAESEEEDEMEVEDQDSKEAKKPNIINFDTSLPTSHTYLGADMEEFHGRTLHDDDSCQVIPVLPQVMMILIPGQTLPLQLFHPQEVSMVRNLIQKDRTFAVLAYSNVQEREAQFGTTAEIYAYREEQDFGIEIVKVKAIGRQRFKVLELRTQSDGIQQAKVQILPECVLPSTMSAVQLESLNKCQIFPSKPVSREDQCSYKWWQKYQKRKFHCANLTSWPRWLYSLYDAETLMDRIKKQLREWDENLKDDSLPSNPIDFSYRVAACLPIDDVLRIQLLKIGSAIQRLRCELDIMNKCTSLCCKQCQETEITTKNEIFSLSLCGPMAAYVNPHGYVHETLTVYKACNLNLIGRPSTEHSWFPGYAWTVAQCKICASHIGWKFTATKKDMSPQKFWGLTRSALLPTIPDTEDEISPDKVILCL
T1 sequence (Q16531 whole entry partner): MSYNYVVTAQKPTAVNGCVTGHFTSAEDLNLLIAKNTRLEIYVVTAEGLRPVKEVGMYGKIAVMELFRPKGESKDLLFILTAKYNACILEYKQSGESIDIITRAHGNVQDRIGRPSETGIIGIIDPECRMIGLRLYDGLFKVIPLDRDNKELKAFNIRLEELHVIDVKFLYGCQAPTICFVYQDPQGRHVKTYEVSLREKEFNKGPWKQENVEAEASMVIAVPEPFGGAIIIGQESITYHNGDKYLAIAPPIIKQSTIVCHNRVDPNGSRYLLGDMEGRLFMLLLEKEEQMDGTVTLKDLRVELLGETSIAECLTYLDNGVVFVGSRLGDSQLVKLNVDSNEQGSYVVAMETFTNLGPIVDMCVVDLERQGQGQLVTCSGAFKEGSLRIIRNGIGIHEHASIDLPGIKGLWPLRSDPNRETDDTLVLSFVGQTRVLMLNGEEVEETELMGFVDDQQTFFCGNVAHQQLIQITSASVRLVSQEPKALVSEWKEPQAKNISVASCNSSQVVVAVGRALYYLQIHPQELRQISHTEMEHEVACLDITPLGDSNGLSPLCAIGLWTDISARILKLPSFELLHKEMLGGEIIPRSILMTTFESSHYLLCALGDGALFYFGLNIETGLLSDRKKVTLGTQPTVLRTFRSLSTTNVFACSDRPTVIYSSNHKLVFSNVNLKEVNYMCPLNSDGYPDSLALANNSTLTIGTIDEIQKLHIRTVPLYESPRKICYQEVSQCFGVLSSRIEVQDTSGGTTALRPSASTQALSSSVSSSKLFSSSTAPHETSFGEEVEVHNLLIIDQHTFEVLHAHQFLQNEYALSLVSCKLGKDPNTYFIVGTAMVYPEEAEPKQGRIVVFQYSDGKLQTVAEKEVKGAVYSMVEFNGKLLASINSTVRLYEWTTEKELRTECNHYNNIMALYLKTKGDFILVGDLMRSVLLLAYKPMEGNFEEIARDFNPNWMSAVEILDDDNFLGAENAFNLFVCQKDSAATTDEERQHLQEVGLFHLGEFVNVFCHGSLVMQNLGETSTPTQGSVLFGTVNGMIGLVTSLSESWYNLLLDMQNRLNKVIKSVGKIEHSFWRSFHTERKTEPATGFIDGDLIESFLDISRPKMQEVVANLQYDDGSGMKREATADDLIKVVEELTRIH
T3 sequence (P15170 whole entry): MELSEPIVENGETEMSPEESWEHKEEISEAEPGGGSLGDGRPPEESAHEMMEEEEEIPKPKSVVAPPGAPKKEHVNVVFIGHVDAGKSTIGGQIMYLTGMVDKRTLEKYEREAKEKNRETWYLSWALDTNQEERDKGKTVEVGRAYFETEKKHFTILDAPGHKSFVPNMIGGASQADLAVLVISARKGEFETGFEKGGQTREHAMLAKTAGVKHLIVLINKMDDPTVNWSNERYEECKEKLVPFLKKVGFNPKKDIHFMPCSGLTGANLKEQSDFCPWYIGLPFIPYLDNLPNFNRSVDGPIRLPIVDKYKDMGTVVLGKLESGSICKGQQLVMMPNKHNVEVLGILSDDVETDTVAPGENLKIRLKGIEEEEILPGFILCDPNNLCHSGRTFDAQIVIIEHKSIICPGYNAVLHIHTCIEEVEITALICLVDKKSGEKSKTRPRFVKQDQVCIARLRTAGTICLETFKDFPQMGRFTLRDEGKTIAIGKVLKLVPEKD
T3 sequence (Q96SW2 whole entry): as the sequence (Q96SW2 whole entry) above
T3 sequence (Q16531 whole entry partner): as the sequence (Q16531 whole entry partner) above
T2 sequence (P48729 whole entry): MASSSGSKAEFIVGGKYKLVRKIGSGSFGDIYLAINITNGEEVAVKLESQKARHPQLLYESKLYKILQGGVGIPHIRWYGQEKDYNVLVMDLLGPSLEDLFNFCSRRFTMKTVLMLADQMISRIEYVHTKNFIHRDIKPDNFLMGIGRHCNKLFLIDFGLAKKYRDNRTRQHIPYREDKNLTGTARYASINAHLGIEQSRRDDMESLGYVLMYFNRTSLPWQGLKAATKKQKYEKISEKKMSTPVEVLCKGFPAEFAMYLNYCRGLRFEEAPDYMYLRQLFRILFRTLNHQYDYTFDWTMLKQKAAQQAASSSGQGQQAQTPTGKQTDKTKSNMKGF
T2 sequence (Q96SW2 whole entry): as the sequence (Q96SW2 whole entry) above
T2 sequence (Q16531 whole entry partner): as the sequence (Q16531 whole entry partner) above

## CC(C)(C)c1ccc(C(=O)C(=O)NCc2scc3c2CN(C2CCC(=O)NC2=O)C3=O)cc1 (centres unmarked) [Compound I-1, 2-(4-(tert-butyl)phenyl)-N-((5-(2,6-dioxopiperidin-3-yl)-4-oxo-5,6-dihydro-4H-thieno[3,4-c]pyrrol-1-yl)methyl)-2-oxoacetamide]
IKAROS
  Protein Degradation IKAROS: A (a value no less than 80%)
CK1α
  Protein Degradation CK1α: B (a value less than 80% but no less than 50%)
GSPT1
  Protein Degradation GSPT1: B (a value less than 80% but no less than 50%)
IL-1β
  inhibition at 0.1 µM: > 80%
IL-6
  inhibition at 0.1 µM: 50 to 80%
TNF-α
  inhibition at 0.1 µM: > 80%
IL-2
  IL-2 production, fold change over the DMSO control: 3.7 fold
MOLM-13 cells
  Antiproliferative Activity (inhibition, MOLM-13 cell viability): A (a value no less than 80%)
